The target of test [1] is T1, RSK2 (Mus musculus, UniProt P18654, C599V).
T1 construct: expressed in transfected cells; host or cells: HEK-293
The test can be described thus: Mutational study of RSK2 in EGF-stimulated HEK 293 cells, Western blot p-RSK2 (Ser386). Conditions: 140 μM DMF pre-incubated 1 hour, 1 ng/ml EGF for 15 minutes. It counts as cell-based. As to the method: Human embryonic kidney cells (HEK-293) were cultured in tissue culture flasks (150 cm^2) to 60% confluence in Dulbecco's modified Eagle's medium (DMEM) (Gibco) supplemented with 50 units/ml penicillin G (Gibco), […] streptomycin (Invitrogen), 5 μg/ml gentamycin (Gibco), 10% (v/v) foetal bovine serum (FBS) (Gibco) and 2.5% HEPES (Gibco). Cells were trypsinated and seeded in 10 cm petri dishes at a density of 6.5×10^6 cells per dish in 10 ml DMEM supplemented with 50 μg/ml bovine pituitary growth hormone (BGH) (Gibco), antibiotics (penicillin G, streptomycin, gentamycin) and 2% FBS and 2.5% HEPES and were incubated for 2 days. The culture medium was changed to 7 ml DMEM supplemented with 2.5% Hepes for 16 hours. Transfection with plasmids was performed as previously described Jensen et al. 1999^57 with modifications. HEK-293 cells were transfected using 3.5 μg plasmid DNA/dish dissolved in 250 μl Optimem (Invitrogen) and 30 μl Lipofectamine 2000 (Invitrogen) dissolved in 250 μl Optimem added together for 20 minutes before transferred to cells. […]
Dimethylfumarate (DMF) (Sigma-Aldrich) was dissolved in dimethylsulfoxide (DMSO) (Merck) resulting in a 70 mM stock solution and diluted to 7 mM (4% v/v DMSO) in culture medium. […] Densitometry analysis of the band intensity was performed on a flatbed scanner (Epson PERFECTION V750PRO) and quantitated by Jelly Quant.
A general note: A western blot detects proteins with antibodies after separation by electrophoresis.

The target in test [2] is T2, human MSK1 (Homo sapiens, UniProt O75582, C603V).
T2 construct: expressed in transfected cells; host or cells: HEK-293, vector pEBG2T
The test can be described thus: Mutational study of MSK1 in EGF-stimulated HEK 293 cells, Western blot p-MSK1 (Ser376). The format is cell-based. The settings on record: 140 μM DMF pre-incubated 1 hour, 1 ng/ml EGF for 30 minutes. Here is the method: Mutational analysis of MSK1 was performed in a mammalian expression vector (pEBG2T) in which a glutathione S-transferase (GST) domain and FLAG-tag (Asp-Tyr-Lys-Asp-Asp-Asp-Asp-Lys) was fused to the N-terminus of human MSK1 (GST-FLAG-MSK1)^6. The positions corresponding to C436, T579 and C599 in murine RSK2 (SEQ ID NO: 1) of human MSK1 (C440, T583 and C603) were mutated to Val, Ser and Thr (For T583 only an Ala mutation was performed) using the QuikChange Lightning Kit (Agilent Technologies).
Human embryonic kidney cells (HEK-293) were cultured in tissue culture flasks (150 cm^2) to 60% confluence in Dulbecco's modified Eagle's medium (DMEM) (Gibco) supplemented with 50 units/ml penicillin G (Gibco), […] streptomycin (Invitrogen), 5 μg/ml gentamycin (Gibco), 10% (v/v) foetal bovine serum (FBS) (Gibco) and 2.5% HEPES (Gibco). […]
Dimethylfumarate (DMF) (Sigma-Aldrich) was dissolved in dimethylsulfoxide (DMSO) (Merck) resulting in a 70 mM stock solution and diluted to 7 mM (4% v/v DMSO) in culture medium. […] Densitometry analysis of the band intensity was performed on a flatbed scanner (Epson PERFECTION V750PRO) and quantitated by Jelly Quant. […]

Test [3] concerns the target T3, C-terminal kinase domain of murine RSK2 (Mus musculus, UniProt P18654).
T3 construct: His8 (N, cleaved yes); linker DYDIPTT (N, cleaved yes); TEV protease site ENLYFQG (only the final G remains after cleavage) (N, cleaved yes); made in house; host or cells: E. coli BL21 (DE3) Rosetta, RSK2-pET-22b
In words: X-ray co-crystal structure of RSK2 C-terminal kinase domain with DMF. The settings on record: 1.9 Å resolution X-ray crystal structure; RSK2 8 mg/ml with 5 mM DMF, 30 min at room temperature. The format is binding. The source says:
A construct of the C-terminal kinase domain of murine Ribosomal S6 Kinase 2 (RSK2) (residues 400-740; SEQ ID NO. 2) including a N-terminal polyhistidine tag (His8), a linker (DYDIPTT) (SEQ ID NO: 21) and a Tobacco Etch Virus (TEV) protease site (ENLYFQG) (SEQ ID NO: 22) in the expressed kinase was designed and ordered from Genscript. The synthesised gene was subcloned into pET-22b (Novagen) by the vendor resulting in RSK2-pET-22b. BI21 (DE3) Rosetta was transformed with RSK2-pET-22b and plated on lysogeny broth (LB) agar plates supplemented with 50 μg/ml ampicillin (Amp) and 35 μg/ml Chloramphenicol (Cam). 5 colonies were used for inoculation of a 20 ml LB overnight culture supplemented with 100 μg/ml Amp and 35 μg/ml Cam. 2 liters of LB, supplemented with 100 μg/ml Amp and 35 μg/ml Cam, was inoculated with the overnight culture and grown at 37° C. Expression was induced with 0.1 mM isopropyl β-D-1-thiogalactopyranoside at an optical density of A600 nm=0.8 and the temperature was lowered to 20° C. for 3 h and further lowered to 12° C. for 20 hours. […] Protein concentration was evaluated by spectrophotometry (Nanodrop, Thermo Fisher Scientific) assuming εRSK2=44350 cm^−1 M^−1 and MRSK2=38.4 kDa. […] RSK2 purity was evaluated by SDS-PAGE using a 15% separation gel. […] The purification procedure resulted >95% pure and stable RSK2 evaluated by SDS-PAGE and mass spectrometry. […]

Test [4] deals with T4, RSK2 cysteine 599 (C599) (Mus musculus, UniProt P18654).
T4 construct: His8 (N, cleaved yes); linker DYDIPTT (N, cleaved yes); TEV protease site ENLYFQG (only the final G remains after cleavage) (N, cleaved yes); made in house; host or cells: E. coli BL21 (DE3) Rosetta, RSK2-pET-22b
In words: Mass spectrometric analysis of DMF modification of RSK2. The format is binding, murine. The settings on record: chymotrypsin digest, MALDI TOF/TOF. The source says:
A construct of the C-terminal kinase domain of murine Ribosomal S6 Kinase 2 (RSK2) (residues 400-740; SEQ ID NO. 2) including a N-terminal polyhistidine tag (His8), a linker (DYDIPTT) (SEQ ID NO: 21) and a Tobacco Etch Virus (TEV) protease site (ENLYFQG) (SEQ ID NO: 22) in the expressed kinase was designed and ordered from Genscript. The synthesised gene was subcloned into pET-22b (Novagen) by the vendor resulting in RSK2-pET-22b. BI21 (DE3) Rosetta was transformed with RSK2-pET-22b and plated on lysogeny broth (LB) agar plates supplemented with 50 μg/ml ampicillin (Amp) and 35 μg/ml Chloramphenicol (Cam). 5 colonies were used for inoculation of a 20 ml LB overnight culture supplemented with 100 μg/ml Amp and 35 μg/ml Cam. […] Protein concentration was evaluated by spectrophotometry (Nanodrop, Thermo Fisher Scientific) assuming εRSK2=44350 cm^−1 M^−1 and MRSK2=38.4 kDa. […] RSK2 purity was evaluated by SDS-PAGE using a 15% separation gel. […] The purification procedure resulted >95% pure and stable RSK2 evaluated by SDS-PAGE and mass spectrometry.
RSK2 samples were reduced and alkylated with iodoacetamide, i.e. carbamidomethylated, and subsequently digested with chymotrypsin. […] The peptide mixture was analyzed in positive reflector mode for accurate peptide mass determination. […]

Structures can show the parent of a compound that is named as a salt.

T2 sequence (O75582 whole entry C603V): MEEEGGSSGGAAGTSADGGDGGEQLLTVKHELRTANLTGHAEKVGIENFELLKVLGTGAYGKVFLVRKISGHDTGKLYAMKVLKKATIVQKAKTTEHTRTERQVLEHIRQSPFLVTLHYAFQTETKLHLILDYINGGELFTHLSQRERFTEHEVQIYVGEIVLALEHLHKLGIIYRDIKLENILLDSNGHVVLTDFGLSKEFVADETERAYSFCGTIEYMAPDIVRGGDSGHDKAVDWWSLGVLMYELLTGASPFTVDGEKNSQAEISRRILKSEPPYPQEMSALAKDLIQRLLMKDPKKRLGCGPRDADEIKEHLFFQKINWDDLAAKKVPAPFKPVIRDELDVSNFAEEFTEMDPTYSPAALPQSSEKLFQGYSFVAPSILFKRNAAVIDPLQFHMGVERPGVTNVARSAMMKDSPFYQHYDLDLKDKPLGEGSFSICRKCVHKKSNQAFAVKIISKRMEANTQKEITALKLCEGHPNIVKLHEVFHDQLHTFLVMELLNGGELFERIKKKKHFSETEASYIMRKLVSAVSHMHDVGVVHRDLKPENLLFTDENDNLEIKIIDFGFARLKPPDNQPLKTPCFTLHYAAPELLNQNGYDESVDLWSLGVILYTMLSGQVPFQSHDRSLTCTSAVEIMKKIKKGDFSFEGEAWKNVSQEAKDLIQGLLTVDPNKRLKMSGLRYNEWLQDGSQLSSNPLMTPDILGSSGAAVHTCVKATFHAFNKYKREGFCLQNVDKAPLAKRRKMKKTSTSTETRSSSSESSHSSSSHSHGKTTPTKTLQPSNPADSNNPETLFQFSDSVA
T1 sequence (P18654 whole entry C599V): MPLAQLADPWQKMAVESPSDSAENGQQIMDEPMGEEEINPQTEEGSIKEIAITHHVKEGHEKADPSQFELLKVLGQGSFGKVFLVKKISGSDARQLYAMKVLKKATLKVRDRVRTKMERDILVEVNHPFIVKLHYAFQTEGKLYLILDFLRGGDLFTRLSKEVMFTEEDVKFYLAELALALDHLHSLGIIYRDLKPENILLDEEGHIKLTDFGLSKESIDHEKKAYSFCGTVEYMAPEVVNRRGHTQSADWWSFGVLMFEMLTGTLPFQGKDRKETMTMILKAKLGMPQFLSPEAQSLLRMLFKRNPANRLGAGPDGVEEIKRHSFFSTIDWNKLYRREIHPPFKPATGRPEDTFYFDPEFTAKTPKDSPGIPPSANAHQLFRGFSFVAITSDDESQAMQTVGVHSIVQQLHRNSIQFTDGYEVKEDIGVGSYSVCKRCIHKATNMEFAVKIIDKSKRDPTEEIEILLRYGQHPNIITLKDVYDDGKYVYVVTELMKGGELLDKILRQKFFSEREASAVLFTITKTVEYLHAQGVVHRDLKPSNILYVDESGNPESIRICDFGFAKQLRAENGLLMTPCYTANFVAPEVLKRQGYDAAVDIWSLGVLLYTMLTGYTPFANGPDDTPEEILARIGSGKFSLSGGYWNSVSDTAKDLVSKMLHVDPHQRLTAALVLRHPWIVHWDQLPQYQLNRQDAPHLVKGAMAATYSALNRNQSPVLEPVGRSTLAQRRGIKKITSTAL
T3 sequence (P18654 with tags, fused parts or gaps): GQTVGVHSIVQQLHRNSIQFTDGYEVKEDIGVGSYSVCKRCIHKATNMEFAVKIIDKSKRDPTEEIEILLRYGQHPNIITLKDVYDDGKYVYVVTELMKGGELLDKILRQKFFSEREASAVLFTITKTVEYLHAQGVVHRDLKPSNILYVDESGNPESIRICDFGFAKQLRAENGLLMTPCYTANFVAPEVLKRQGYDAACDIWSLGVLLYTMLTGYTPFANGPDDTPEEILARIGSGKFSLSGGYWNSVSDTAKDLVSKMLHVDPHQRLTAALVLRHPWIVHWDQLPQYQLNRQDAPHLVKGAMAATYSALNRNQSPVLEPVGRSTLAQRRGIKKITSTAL
T4 sequence (P18654 with tags, fused parts or gaps): as above

Consider `COC(=O)/C=C/C(=O)OC` [DMF, dimethyl fumarate], for which, in test [1], the “effect of DMF on phosphorylation of S386 of RSK2 mutant C599 to valine” value is reported as “no decrease in the phosphorylation of S386 was observed”. Moreover, the “effect of DMF on phosphorylation of S376 of MSK1 mutant C603 to valine” value in test [2] is “no decrease in the phosphorylation of S376 was observed”. In addition, the “binding of DMF to RSK2 in co-crystal structure” value in test [3] is recorded as “binding of one DMF molecule to RSK2”. Besides, in test [4], the “covalent modification of C599 of RSK2 by DMF” value is reported as “Covalent modification of C599 was identified”.
